Laboratory results taken from patent publication US8148391B2 (Cephalon, Inc., priority 2006, dated 2012).
Counter-ions that a name gives are not always drawn. Like-named read-outs stand apart in the source and are kept apart here.

Assays:
[1] = target: T1, c-Met (cytoplasmic domain) (Homo sapiens, UniProt P08581); experiment: c-Met Kinase Assay (same methods as for ALK, with modifications); format: biochemical
T1 construct: 10 ng/mL c-Met (cytoplasmic domain, Invitrogen Corporation #PV3143); purchased Invitrogen Corporation PV3143
Procedure, shortened: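 Europium-labeled PT66 antibody (Eu-N1) detects substrate phosphorylation on wells coated with phospholipase C-γ at 10 μg/mL. The kinase, the cytoplasmic domain of c-Met at 10 ng/mL, starts the reaction, which proceeds 15 minutes at 37° C.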

[2] = target: T2, baculovirus-expressed ALK (Homo sapiens, UniProt Q9UM73); experiment: ALK Kinase Assay (ELISA-type, time-resolved fluorescence); format: biochemical
T2 construct: host or cells: baculovirus expression system
Procedure, shortened: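 Plates coated with phospholipase C-γ substrate (10 μg/mL in TBS); reaction started with 30 ng/ml ALK and run 15 min at 37° C. Phosphorylated substrate detected with Eu-N1-labeled PT66 antibody. IC50 from sigmoidal variable-slope fit of percent inhibition vs log concentration.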

[3] = 1 μM ATP (Km level), read-out: cMet Activity (c-Met Kinase Inhibition, IC50)
[4] = 1 μM ATP (Km level), read-out: ALK Activity (ALK Kinase Inhibition, IC50)
[5] = c-Met kinase inhibition, 1 μM ATP (Km level), read-out: cMet Activity
[6] = ALK kinase inhibition, 1 μM ATP (Km level), read-out: ALK Activity

T1 sequence (P08581 956-1390 limits assumed): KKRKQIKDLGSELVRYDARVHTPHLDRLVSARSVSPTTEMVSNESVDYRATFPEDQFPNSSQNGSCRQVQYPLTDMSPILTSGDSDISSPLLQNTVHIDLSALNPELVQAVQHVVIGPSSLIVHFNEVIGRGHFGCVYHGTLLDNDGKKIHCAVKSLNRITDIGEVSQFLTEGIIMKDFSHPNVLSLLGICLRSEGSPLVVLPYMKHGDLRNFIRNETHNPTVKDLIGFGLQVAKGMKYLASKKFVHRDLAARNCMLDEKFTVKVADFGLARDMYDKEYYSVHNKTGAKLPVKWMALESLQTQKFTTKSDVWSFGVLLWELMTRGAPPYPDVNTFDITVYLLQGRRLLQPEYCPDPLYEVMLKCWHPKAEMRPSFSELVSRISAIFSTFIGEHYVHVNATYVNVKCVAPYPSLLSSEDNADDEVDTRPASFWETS
T2 sequence (Q9UM73 19-1620): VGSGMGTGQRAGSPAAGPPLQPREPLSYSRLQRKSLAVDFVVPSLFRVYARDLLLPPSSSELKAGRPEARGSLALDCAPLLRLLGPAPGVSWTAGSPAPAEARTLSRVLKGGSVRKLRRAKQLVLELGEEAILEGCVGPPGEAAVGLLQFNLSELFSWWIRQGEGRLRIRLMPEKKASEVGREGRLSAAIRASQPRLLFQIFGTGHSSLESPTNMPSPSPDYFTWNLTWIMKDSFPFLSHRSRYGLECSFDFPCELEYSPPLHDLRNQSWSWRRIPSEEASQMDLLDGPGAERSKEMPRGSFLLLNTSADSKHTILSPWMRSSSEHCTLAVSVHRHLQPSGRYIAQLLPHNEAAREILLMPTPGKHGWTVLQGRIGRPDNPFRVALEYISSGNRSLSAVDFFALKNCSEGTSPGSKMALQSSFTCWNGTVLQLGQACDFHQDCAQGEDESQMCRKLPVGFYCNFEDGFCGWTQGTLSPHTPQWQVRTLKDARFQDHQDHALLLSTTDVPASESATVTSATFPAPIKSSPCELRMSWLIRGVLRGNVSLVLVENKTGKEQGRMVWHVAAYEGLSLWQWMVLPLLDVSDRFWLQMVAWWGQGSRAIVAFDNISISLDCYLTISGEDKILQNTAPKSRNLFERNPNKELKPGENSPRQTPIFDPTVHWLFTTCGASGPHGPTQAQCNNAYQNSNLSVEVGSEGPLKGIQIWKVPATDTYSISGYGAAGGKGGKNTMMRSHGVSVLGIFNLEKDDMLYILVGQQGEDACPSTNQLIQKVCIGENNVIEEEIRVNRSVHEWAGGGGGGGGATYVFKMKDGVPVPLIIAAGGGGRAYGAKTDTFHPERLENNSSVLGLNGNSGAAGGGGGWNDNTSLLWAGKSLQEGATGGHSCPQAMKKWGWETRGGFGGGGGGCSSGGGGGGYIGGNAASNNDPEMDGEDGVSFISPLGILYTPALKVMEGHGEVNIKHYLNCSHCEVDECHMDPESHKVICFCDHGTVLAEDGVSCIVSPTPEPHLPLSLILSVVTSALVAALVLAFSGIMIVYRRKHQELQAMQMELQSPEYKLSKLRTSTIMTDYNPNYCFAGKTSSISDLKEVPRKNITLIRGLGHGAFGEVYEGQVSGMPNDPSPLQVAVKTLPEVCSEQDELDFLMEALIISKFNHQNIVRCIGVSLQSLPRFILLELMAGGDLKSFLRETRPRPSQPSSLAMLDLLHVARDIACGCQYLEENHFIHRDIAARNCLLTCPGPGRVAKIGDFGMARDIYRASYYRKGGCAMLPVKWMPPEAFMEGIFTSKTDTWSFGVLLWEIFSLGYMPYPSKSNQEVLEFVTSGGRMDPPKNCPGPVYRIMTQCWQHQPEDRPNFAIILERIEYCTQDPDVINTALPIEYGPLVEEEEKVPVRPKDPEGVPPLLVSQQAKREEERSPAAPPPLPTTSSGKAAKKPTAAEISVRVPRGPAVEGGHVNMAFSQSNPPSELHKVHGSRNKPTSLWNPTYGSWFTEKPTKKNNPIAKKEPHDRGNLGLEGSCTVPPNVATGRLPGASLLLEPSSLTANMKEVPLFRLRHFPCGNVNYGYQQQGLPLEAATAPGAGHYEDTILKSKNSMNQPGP

IC50 [1, 3] [nM]	IC50 [2, 4] [nM]	IC50 [1, 5] [nM]	IC50 [2, 6] [nM]	SMILES	also measured
100 to 1000	< 100	–	–	CS(=O)(=O)N[C@@H]1CCCC[C@H]1Nc1nc(Nc2ccc3c(c2)CCC(NCC(F)F)CC3)ncc1Cl (stereo partly drawn) [Example 662, N-((1R,2R)-2-{5-Chloro-2-[7-(2,2-difluoro-ethylamino)-6,7,8,9-tetrahydro-5H-benzocyclohepten-2-ylamino]-pyrimidin-4-ylamino}-cyclohexyl)-methanesulfonamide]	–
< 100	< 100	–	–	NC(=O)[C@@H]1[C@H](Nc2nc(Nc3ccc4c(c3)CCC(N3CCOCC3)CC4)ncc2Cl)[C@H]2C=C[C@@H]1C2 (stereo partly drawn) [Example 671, (1S,2S,3R,4R)-3-[5-Chloro-2-(7-morpholin-4-yl-6,7,8,9-tetrahydro-5H-benzocyclohepten-2-ylamino)-pyrimidin-4-ylamino]-bicyclo[2.2.1]hept-5-ene-2-carboxylic acid amide]	–
–	–	> 10000	100 to 1000	CCN1C(=O)C(C)(C)CCc2c1ccc(Nc1ncc(Cl)c(Nc3ccc(N4CCOCC4)cc3OC)n1)c2OC [Example 141, 7-[5-Chloro-4-(2-methoxy-4-morpholin-4-yl-phenylamino)-pyrimidin-2-ylamino]-1-ethyl-6-methoxy-3,3-dimethyl-1,3,4,5-tetrahydro-benzo[b]azepin-2-one]	–
–	–	–	–	CNC(=O)c1c(Cl)sc(Cl)c1Nc1nc(Nc2ccc3c(c2)CCOC(=O)N3C)ncc1Cl [Example 1774, 2,5-Dichloro-4-[5-chloro-2-(5-methyl-6-oxo-5,6,8,9-tetrahydro-7-oxa-5-aza-benzocyclohepten-2-ylamino)-pyrimidin-4-ylamino]-thiophene-3-carboxylic acid methylamide]	IC50 ([1]; c-Met kinase inhibition, 1 μM ATP, read-out: cMet Activity): 100 to 1000 nM; IC50 ([2]; ALK kinase inhibition, 1 μM ATP, read-out: ALK Activity): 1000 to 10000 nM
< 100	< 100	–	–	CCN1CCSc2ccc(Nc3ncc(Cl)c(Nc4ccccc4C(=O)NC)n3)cc2C1 [Example 517, 2-[5-Chloro-2-(8-ethyl-6,7,8,9-tetrahydro-5-thia-aza-benzocyclohepten-2-ylamino)-pyrimidin-4-ylamino]-N-methyl-benzamide]	–
–	–	–	–	COCCNC1CCc2cc(Nc3ncc(Cl)c(Nc4ccccc4S(=O)(=O)N4CCCC4)n3)c(OC)cc2CC1 (centres unmarked) [Example 1081, 5-Chloro-N*2*-[3-methoxy-7-(2-methoxy-ethylamino)-6,7,8,9-tetrahydro-5H-benzocyclohepten-2-yl]-N*4*-[2-(pyrrolidine-1-sulfonyl)-phenyl]-pyrimidine-2,4-diamine]	IC50 ([1]; 1 μM ATP (Km level), 10 ng/mL c-Met, read-out: cMet Activity (c-Met kinase inhibition, IC50 class)): 1000 to 10000 nM; IC50 ([2]; 1 μM ATP (Km level), 30 ng/ml ALK, 37° C., 15 minutes, read-out: ALK Activity (ALK kinase inhibition, IC50 class)): < 100 nM
–	–	100 to 1000	< 100	NC(=O)[C@@H]1[C@H](Nc2nc(Nc3ccc4c(c3)CCC(=O)CC4)ncc2Cl)[C@H]2C=C[C@@H]1C2 (relative stereo) [Example 173, (2-exo,3-exo)-3-[5-Chloro-2-(7-oxo-6,7,8,9-tetrahydro-5H-benzocyclo-hepten-2-ylamino)-pyrimidin-4-ylamino]-bicyclo[2.2.1]hept-5-ene-2-carboxylic acid amide; hydrochloride]	–
–	–	< 100	< 100	CCN1C(=O)CCC(C)(C)c2cc(Nc3ncc(Cl)c(Nc4ccccc4C(=O)NC)n3)ccc21 [Example 387, 2-[5-Chloro-2-(1-ethyl-5,5-dimethyl-2-oxo-2,3,4,5-tetrahydro-1H-benzo[b]azepin-7-ylamino)-pyrimidin-4-ylamino]-N-methyl-benzamide]	–
–	–	1000 to 10000	< 100	CN1CCN(CC2CC2)Cc2ccc(Nc3ncc(Cl)c(N[C@@H]4CCCC[C@H]4NS(C)(=O)=O)n3)cc21 [Example 479, N-{(1R,2R)-2-[5-Chloro-2-(4-cyclopropylmethyl-1-methyl-2,3,4,5-tetrahydro-1H-benzo[e][1,4]diazepin-8-ylamino)-pyrimidin-4-ylamino]-cyclohexyl}-methanesulfonamide]	–

SMILES	IC50 [1, 3] [nM]	IC50 [2, 4] [nM]	IC50 [1, 5] [nM]	IC50 [2, 6] [nM]	also measured
CCC(C)N1C2CCC1c1cc(Nc3ncc(Cl)c(N[C@@H]4CCCC[C@H]4NS(C)(=O)=O)n3)ccc1C2 (mixture of isomers) [Example 84, N-{(1R,2R)-2-[2-(12-sec-Butyl-12-aza-tricyclo[7.2.1.0*2,7*]dodeca-2(7),3,5-trien-4-ylamino)-5-chloro-pyrimidin-4-ylamino]-cyclohexyl}-methanesulfonamide]	–	–	100 to 1000	< 100	–
